# In PMC5791972 (PLoS ONE, 2018):
# “And” between values parts separate entries of the source, which are not always exact repeats. Identical values can stand only once. Starred links: 1 amine or outer side, 2 acyl side, 3 side chain; linkers in the order of their positions; H or OH if unused. Positions of bridges follow the written chain, without caps; N, C: chain ends. Residues, ends and D or L forms follow the SMILES beside them. X1 = O=C(CC1(S[*:2])CCCCC1)[*:1]
# Legend:
# [1] = target: T1, 5-HT2A (h) (Homo sapiens, UniProt P28223); assay type: binding
# T1 construct: host or cells: HEK-293 cells
# T1 sequence (P28223 whole entry): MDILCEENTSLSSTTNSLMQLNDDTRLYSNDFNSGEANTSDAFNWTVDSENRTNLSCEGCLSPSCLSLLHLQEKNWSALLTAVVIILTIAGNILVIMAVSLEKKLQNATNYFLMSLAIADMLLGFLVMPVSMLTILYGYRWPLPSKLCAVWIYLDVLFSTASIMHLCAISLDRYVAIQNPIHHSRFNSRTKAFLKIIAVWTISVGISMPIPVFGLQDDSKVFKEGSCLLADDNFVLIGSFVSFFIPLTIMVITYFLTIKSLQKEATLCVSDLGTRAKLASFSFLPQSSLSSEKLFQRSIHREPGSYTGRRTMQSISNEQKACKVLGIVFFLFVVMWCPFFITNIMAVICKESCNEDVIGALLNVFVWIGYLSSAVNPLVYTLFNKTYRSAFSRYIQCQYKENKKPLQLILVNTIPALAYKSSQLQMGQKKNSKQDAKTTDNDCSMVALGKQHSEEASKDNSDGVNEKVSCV
# [2] = target: T2, BLT1 (LTB4) (h) (Homo sapiens, UniProt Q15722); assay type: binding
# T2 construct: host or cells: CHO cells
# T2 sequence (Q15722 whole entry): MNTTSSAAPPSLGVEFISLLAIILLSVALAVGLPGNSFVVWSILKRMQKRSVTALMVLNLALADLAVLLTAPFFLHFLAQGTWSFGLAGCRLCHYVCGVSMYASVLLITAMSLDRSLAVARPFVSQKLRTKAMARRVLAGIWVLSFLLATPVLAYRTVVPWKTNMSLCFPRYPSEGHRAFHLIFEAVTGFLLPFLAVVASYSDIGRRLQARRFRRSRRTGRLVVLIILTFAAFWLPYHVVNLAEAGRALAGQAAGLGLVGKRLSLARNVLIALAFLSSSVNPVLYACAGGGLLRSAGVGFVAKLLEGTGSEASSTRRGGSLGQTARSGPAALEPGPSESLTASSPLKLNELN
# [3] = target: MMP-9 (h) (Homo sapiens, UniProt P14780); assay: biochemical; assay type: biochemical
# Chain of MMP-9 (h) (P14780 94-707): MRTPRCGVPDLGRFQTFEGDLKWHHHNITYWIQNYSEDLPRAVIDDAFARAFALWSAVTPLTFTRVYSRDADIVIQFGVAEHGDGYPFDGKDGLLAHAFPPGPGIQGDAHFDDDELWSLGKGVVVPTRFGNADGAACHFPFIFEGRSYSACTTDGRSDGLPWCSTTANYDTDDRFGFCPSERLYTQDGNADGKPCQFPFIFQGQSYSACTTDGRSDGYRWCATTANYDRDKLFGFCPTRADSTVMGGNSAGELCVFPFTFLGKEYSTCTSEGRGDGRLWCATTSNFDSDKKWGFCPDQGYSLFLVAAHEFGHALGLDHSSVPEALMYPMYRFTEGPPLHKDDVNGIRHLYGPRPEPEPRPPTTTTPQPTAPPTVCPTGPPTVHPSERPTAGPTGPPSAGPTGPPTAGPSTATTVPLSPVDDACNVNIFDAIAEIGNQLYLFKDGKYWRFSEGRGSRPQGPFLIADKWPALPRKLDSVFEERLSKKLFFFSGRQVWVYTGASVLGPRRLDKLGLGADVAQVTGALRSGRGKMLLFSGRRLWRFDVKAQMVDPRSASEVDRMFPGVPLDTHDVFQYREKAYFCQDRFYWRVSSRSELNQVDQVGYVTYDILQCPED
# [4] = target: T3, M2 (h) (Homo sapiens, UniProt P08172)
# T3 sequence (P08172 1-466): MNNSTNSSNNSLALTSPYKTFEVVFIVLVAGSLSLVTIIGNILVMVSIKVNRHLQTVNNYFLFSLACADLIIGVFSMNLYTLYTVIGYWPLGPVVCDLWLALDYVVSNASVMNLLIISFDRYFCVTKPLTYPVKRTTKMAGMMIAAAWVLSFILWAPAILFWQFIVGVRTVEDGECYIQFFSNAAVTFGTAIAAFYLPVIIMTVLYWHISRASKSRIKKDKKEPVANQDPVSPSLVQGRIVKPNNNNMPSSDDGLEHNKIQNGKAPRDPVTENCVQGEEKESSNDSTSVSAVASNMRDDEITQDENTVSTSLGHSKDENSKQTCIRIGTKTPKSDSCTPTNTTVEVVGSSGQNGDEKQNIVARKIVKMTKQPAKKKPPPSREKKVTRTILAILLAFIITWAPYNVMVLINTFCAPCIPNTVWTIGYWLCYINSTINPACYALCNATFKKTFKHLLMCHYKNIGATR
# [5] = target: PDE3A (h) (Homo sapiens, UniProt Q14432); assay: biochemical
# [6] = target: Ca2+ channel (N) (Rattus norvegicus, UniProt Q02294); assay: biochemical; assay type: binding
# [7] = target: T4, 5-HT transporter (h) (Homo sapiens, UniProt P31645); assay type: binding
# T4 construct: host or cells: CHO cells
# T4 sequence (P31645 whole entry): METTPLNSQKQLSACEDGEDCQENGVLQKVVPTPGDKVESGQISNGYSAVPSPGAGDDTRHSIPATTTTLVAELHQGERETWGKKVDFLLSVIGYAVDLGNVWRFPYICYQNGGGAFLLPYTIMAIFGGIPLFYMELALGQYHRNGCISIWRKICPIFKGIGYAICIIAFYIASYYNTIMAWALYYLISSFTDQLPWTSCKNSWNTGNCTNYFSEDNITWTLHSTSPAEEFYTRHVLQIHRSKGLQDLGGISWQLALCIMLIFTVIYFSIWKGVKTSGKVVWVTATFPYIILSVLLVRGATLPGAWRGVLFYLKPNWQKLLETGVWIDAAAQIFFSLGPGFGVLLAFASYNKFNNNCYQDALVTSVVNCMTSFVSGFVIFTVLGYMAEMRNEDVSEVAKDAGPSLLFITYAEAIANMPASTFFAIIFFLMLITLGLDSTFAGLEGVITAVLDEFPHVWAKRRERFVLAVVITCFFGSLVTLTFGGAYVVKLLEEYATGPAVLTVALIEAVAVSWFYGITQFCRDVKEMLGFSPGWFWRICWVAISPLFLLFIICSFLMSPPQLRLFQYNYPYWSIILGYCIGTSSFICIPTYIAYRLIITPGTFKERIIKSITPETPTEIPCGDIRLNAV
# [8] = test system: CD-1 mice; assay: Forced swim test; conditions: 20 mg/kg IP, 45 min prior, CD-1 mice
# [9] = target: GABAB(1b) (h) (Homo sapiens, UniProt Q9UBS5)
# [10] = target: p38α kinase (h) (Homo sapiens, UniProt Q16539); assay: enzyme assay; assay type: biochemical
# [11] = target: ATPase (Na+/K+); assay: enzyme assay; assay type: biochemical, porcine
# [12] = target: T5, H2 (h) (Homo sapiens, UniProt P25021); assay type: binding
# T5 construct: host or cells: CHO cells
# T5 sequence (P25021 whole entry): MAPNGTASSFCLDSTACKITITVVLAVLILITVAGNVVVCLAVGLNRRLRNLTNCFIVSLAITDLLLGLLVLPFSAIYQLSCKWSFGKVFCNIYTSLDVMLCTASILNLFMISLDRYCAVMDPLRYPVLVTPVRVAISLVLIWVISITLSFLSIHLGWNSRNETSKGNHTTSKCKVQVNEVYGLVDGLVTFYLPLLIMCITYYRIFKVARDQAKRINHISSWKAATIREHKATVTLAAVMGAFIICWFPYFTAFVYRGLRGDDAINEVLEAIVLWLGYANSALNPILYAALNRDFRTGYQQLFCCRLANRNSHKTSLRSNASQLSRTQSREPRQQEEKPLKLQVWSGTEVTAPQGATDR
# [13] = target: T6, FLT-1 kinase (h) (VEGFR1) (Homo sapiens, UniProt P17948); assay: enzyme assay; assay type: biochemical
# T6 construct: host or cells: Sf9 cells
# T6 sequence (P17948 27-1338): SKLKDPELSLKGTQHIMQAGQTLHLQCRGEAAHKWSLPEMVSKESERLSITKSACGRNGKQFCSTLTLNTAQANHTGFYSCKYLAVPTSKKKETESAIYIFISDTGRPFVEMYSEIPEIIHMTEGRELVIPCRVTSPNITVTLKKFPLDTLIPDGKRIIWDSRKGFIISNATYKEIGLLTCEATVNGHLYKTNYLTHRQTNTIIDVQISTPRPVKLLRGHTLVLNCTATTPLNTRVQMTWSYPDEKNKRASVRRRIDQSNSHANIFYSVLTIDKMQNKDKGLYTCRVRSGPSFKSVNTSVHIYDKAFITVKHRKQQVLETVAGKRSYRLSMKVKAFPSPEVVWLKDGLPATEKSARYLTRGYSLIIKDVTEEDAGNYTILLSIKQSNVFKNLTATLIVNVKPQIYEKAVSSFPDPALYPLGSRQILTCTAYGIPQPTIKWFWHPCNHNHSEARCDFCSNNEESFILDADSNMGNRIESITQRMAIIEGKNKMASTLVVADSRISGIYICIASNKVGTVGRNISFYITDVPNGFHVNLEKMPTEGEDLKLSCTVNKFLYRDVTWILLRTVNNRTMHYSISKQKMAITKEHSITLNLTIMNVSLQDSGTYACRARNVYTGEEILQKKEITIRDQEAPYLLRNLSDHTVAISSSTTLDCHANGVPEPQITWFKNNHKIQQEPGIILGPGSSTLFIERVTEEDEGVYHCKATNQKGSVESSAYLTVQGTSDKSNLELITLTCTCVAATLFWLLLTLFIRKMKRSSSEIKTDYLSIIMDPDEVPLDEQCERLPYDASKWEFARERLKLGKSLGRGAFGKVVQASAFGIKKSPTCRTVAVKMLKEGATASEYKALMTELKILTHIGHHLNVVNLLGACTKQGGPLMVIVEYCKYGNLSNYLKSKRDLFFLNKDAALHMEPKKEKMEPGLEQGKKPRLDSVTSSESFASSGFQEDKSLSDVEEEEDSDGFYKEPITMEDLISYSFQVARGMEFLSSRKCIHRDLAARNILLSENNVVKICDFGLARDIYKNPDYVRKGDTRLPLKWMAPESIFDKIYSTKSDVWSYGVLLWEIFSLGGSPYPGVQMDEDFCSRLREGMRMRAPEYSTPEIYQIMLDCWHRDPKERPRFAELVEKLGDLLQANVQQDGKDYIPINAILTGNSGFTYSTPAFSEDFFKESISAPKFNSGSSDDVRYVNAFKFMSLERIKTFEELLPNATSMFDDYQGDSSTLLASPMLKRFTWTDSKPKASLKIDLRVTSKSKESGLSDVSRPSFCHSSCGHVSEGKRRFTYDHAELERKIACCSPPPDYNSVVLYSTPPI
# [14] = target: T7, ZAP70 kinase (h) (Homo sapiens, UniProt P43403); assay: biochemical
# T7 construct: host or cells: insect cells
# T7 sequence (P43403 1-619): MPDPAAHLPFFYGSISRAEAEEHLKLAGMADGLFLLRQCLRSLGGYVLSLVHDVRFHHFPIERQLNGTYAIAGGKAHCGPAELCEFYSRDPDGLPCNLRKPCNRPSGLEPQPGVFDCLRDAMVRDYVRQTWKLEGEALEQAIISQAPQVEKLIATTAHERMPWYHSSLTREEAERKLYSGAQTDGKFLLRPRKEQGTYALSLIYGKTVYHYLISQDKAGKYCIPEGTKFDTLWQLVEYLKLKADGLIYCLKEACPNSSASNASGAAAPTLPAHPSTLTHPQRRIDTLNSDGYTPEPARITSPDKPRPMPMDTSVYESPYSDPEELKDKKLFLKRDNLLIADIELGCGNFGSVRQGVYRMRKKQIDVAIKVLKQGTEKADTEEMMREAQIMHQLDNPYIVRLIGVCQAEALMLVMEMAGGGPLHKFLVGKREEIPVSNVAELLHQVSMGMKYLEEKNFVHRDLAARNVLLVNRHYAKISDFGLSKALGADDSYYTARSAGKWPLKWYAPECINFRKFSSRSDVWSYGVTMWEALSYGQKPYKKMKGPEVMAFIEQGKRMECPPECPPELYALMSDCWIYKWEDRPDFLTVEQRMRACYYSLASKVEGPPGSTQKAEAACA
# [15] = test system: NMRI mice; assay: Locomotor activity; assay type: in vivo, mouse; conditions: 5 mg/kg subcutaneously
# Method: NMRI mice were habituated to their room for at least 2 weeks after the delivery and kept under standard conditions in groups of 4–5 animals per cage. Food and water were available ad libitum.
# Spontaneous motility and rearing were measured by an automated system (Coulbourn Instruments, USA). Animals were introduced into transparent square cages (40 cm length) that are equipped with 2 light barrier systems in order to monitor the movements as well as rearing behavior automatically. The movements of the animals were recorded for 30 minutes. At the end of the experiment, the animals were sacrificed via isofluorane inhalation and subsequent decapitation.
# [16] = target: T8, MT1 (ML1A) (h) (Homo sapiens, UniProt P48039); assay type: binding
# T8 construct: host or cells: CHO cells
# T8 sequence (P48039 whole entry): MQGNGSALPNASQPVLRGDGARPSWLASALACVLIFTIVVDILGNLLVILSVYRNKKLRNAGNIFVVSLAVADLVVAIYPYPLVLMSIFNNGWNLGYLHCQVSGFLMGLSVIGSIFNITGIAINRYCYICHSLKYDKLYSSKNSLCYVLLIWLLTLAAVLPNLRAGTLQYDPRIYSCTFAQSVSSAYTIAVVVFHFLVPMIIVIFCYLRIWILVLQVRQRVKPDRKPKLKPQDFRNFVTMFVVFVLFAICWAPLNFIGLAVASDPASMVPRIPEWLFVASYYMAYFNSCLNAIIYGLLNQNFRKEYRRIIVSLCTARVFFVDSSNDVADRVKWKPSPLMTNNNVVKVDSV
# [17] = target: T9, MT3 (ML2) (Mesocricetus auratus, UniProt A0ABM2YAB8); assay type: binding, hamster
# T9 construct: tissue Cerep; host or cells: hamster brain
# T9 sequence (A0ABM2YAB8 1-231): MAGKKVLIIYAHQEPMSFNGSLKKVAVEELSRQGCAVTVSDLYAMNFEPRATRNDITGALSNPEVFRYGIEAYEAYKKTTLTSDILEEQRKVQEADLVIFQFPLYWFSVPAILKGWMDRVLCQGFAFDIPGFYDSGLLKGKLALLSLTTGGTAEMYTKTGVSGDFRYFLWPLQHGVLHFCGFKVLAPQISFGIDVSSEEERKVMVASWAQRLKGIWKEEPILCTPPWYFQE
# [18] = target: T10, 5-HT3 (h) (Homo sapiens, UniProt P46098)
# T10 sequence (P46098 24-478): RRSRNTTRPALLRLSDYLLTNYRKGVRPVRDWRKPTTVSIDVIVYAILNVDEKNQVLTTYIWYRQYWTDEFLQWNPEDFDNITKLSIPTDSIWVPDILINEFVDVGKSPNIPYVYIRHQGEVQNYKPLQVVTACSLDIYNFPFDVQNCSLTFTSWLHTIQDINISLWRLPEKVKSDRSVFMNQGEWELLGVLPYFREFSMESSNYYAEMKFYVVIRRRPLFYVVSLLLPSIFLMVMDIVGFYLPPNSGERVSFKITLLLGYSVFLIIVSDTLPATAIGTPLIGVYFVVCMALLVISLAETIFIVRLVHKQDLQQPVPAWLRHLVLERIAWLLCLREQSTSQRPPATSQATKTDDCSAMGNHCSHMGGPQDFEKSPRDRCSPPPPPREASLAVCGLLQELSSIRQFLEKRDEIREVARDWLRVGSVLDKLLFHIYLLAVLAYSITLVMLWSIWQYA
# [19] = target: D2S (h) (Homo sapiens, UniProt P14416)
# Chain of D2S (h) (P14416 1-414 isoform P14416-2): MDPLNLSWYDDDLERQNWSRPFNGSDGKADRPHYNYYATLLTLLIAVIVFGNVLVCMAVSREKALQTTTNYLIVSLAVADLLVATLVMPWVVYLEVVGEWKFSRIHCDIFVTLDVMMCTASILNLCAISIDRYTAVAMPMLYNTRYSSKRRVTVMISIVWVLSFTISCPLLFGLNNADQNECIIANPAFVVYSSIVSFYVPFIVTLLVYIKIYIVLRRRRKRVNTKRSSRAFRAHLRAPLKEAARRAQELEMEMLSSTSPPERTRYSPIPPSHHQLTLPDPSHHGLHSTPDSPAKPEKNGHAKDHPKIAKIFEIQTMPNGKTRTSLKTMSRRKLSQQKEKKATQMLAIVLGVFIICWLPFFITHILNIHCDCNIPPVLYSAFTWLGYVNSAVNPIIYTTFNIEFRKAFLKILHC
# [20] = target: PDE5 (h) (non-selective) (Homo sapiens, UniProt O76074)
# [21] = target: Ca2+ channel (L, diltiazem site) (benzothiazepines) (Rattus norvegicus, UniProt P22002); assay type: binding
# [22] = target: T11, V1a (h) (Homo sapiens, UniProt P37288); assay type: binding
# T11 construct: host or cells: CHO cells
# T11 sequence (P37288 whole entry): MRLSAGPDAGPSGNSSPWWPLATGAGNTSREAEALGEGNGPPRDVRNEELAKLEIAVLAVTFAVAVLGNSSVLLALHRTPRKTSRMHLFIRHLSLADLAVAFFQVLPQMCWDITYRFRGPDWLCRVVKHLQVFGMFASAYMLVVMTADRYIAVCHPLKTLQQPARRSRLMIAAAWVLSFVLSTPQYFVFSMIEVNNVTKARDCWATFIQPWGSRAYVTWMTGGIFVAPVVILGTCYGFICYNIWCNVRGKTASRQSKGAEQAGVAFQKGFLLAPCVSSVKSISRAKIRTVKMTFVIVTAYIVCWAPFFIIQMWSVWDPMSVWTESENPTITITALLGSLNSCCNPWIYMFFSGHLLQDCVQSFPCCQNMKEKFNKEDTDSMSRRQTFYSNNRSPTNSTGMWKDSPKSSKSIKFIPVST
molecule,measurement,setting,value
"O=C(c1ccc(F)cc1)C1CCN(CCn2c(=O)[nH]c3ccccc3c2=O)CC1 [ketanserin, reference compound]",nH,[1],1.4
"CCCCC/C=C\C[C@@H](O)/C=C/C=C/C=C\[C@@H](O)CCCC(=O)O [LTB4, reference compound]",nH,[2],0.8
"CNC(=O)[C@H](Cc1c[nH]c2ccccc12)NC(=O)[C@@H](CC(=O)NO)CC(C)C [GM6001, reference compound]",nH,[3],1.6
COc1ccccc1CNCCCCCCNCCCCCCCCNCCCCCCNCc1ccccc1OC [methoctramine],nH,[4],0.9
"Cc1[nH]c(=O)c(C#N)cc1-c1ccncc1 [milrinone, reference compound]",nH,[5],1.0
"C[C@@H](O)[C@@H]1NC(=O)[C@H](Cc2ccc(O)cc2)NC(=O)[C@@H]2C[C@@H](O)CN2C(=O)[C@H](CC(N)=O)NC(=O)[C@@H]2CSSC[C@@H]3NC(=O)[C@H](CO)NC(=O)[C@H](CO)NC(=O)CNC(=O)[C@@H]4C[C@@H](O)CN4C(=O)[C@H](CO)NC(=O)[C@H](CCCCN)NC(=O)[C@@H](N)CSSC[C@H](NC(=O)[C@H](CSSC[C@@H](C(=O)N[C@@H](Cc4ccc(O)cc4)C(N)=O)NC(=O)[C@H](CCCN=C(N)N)NC(=O)[C@H](CCCCN)NC1=O)NC(=O)[C@H](CC(N)=O)NC(=O)[C@H](Cc1ccc(O)cc1)NC(=O)[C@H](CO)NC(=O)[C@H]([C@@H](C)O)NC(=O)[C@@H]1C[C@@H](O)CN1C(=O)[C@H](CO)NC3=O)C(=O)N[C@@H](CCCN=C(N)N)C(=O)N[C@@H](CO)C(=O)N2 [ω-conotoxin GVIA, reference compound]",IC50,[6],0.0012 nM
"CN(C)CCCN1c2ccccc2CCc2ccccc21 [imipramine, reference compound]",nH,[7],0.9
same,immobility time,[8],decreased immobility time
C[C@H](NC[C@H](O)CP(=O)(O)CC1CCCCC1)c1ccc(Cl)c(Cl)c1 [CGP 54626],nH,[9],0.9
"Oc1ccc(-c2nc(-c3ccncc3)c(-c3ccc(F)cc3)[nH]2)cc1 [SB202190, reference compound]",nH,[10],1.4
"C[C@@H]1O[C@@H](O[C@H]2C[C@@H](O)[C@]3(CO)[C@H]4[C@H](O)C[C@]5(C)[C@@H](C6=CC(=O)OC6)CC[C@]5(O)[C@@H]4CC[C@]3(O)C2)[C@H](O)[C@H](O)[C@H]1O [ouabain, reference compound]",IC50,[11],1200 nM
"CN/C(=N/CCSCc1nc[nH]c1C)NC#N [cimetidine, reference compound]",nH,[12],0.9
"CN[C@@H]1C[C@H]2O[C@@](C)([C@@H]1OC)n1c3ccccc3c3c4c(c5c6ccccc6n2c5c31)C(=O)NC4 [staurosporine, reference compound]",nH,[13],1.4
same,nH,[14],1.2
"c1ccc(C2(N3CCCCC3)CCCCC2)cc1 [PCP, Phencyclidine, reference compound]",locomotor activity,[15],substantially increased activity
"COc1ccc2[nH]cc(CCNC(C)=O)c2c1 [melatonin, reference compound]",nH,[16],1.0
same,IC50,[17],38 nM and 260 nM
same,Ki,[17],37 nM and 250 nM
CN1[C@@H]2CC[C@H]1C[C@@H](OC(=O)c1cc(Cl)cc(Cl)c1)C2 [MDL 72222],nH,[18],1.1
(+)butaclamol,nH,[19],1.1
OCCN(CCO)c1nc(N2CCCCC2)c2nc(N(CCO)CCO)nc(N3CCCCC3)c2n1 [dipyridamole],nH,[20],1.7 and 1.0
"COc1ccc([C@@H]2Sc3ccccc3N(CCN(C)C)C(=O)[C@@H]2OC(C)=O)cc1 [diltiazem, reference compound]",nH,[21],1.2
"COc1ccc(C[C@@H]2NC(=O)CC3(CCCCC3)SSC[C@@H](C(=O)N3CCC[C@H]3C(=O)N[C@@H](CCCNC(=N)N)C(=O)NCC(N)=O)NC(=O)[C@H](CC(N)=O)NC(=O)[C@H](CCC(N)=O)NC(=O)[C@H](Cc3ccccc3)NC2=O)cc1 [[d(CH2)51,Tyr(Me)2]-AVP, reference compound] (Y(Me)FQNCPRG-NH2; linker N-5 via X1 (inferred))",nH,[22],0.9
